Measurements as given in publication PMC5931096, “A Phase I study of the novel immunomodulatory agent PG545 (pixatimod) in subjects with advanced solid tumours” (British Journal of Cancer, 2018).
“Also recorded” adds a separate entry of the source. Where two headings read alike, the source gives them in different places.

Key:
[1] = system: pDC and NK cells; test: Flow cytometry of PBMC for DC and NK cell activation; type: in vivo, human
Description: (§1) Plasma and peripheral blood mononuclear cell (PBMC) samples were obtained at various points for PD assessment with the exception of the 25 mg cohort, where PBMC were not collected. Plasma samples were analysed for the concentration of various markers, including cytokines, chemokines and heparanase using commercial ELISA (LifeSpan Biosciences, Seattle, WA), and array kits (Quansys, Logan, UT).
Cryopreserved PBMC samples were analysed by flow cytometry for changes in abundance and activation status of DC and NK cells at day 3 post-treatment compared with pre-dose samples (day 1). Given the stimulatory nature of PG545 via TLR9 reported in mice,[18] efforts were primarily focussed on the assessments of pDC and NK cells though certain subjects with available sample underwent additional analyses. To assess pDC, cells were stained with antibodies to HLADR-peCy7, CD303-FITC, IFNα-647 (BD Biosciences, Franklin Lakes, NJ). To assess NK cells, cells were stained with antibodies to CD335-PE, CD3-APC, IFNγ-FITC (BD Biosciences). All intracellular cytokine staining samples were stimulated by 100 ng/mL PMA, 100 ng/mL ionomycin and 5 μg/mL Brefeldin A for 4 h at 37 °C. Samples were acquired using FACSCanto flow cytometers (BD Biosciences).

[2] = Plasma pharmacokinetics (LC-MS/MS, population PK model and NCA); type: in vivo, human; details: for AUC / Cmax / AUC(0-t) / half-life: human, plasma, intravenous
Description: Plasma samples were obtained for the first (day 1) and fourth (day 22) doses, as follows: (1) pre-dosing (no more than 4 h prior to infusion start); (2) mid-point of infusion; prior to completion of infusion; 30 min post-infusion; then 2, 4, 6, 24, 48, 72, 144 and 168 h post-infusion. Samples were analysed for PG545 concentration using a validated liquid chromatography with tandem mass spectrometry (LC-MS/MS) assay.[13] A population PK model was developed using NONMEM® and individual non-compartmental analysis-type exposure parameter estimation was also performed.

[3] = system: heparanase; details: cited from earlier work
[4] = system: tumour-associated macrophages (TAM); design: method as in PMID 24970482, PMID 23696215; details: preclinical cancer models; cited from earlier work
[5] = system: advanced solid malignancies; test: Clinical activity by RECIST 1.1; type: in vivo, human
Description: All patients were assessed for safety, those who received at least one dose of PG545 were evaluated for efficacy. Safety assessment included the incidence of all adverse events (AEs), irrespective of relationship to study drug, according to the National Cancer Institute Common Terminology Criteria for Adverse Events, version 4.0, and the incidence of patients experiencing dose modifications and/or premature discontinuation of study drug. Dose-limiting toxicities (DLTs) used to determine the MTD were defined as occurring during Cycle 1 of treatment only and related to PG545 according to investigator assessment. If no DLT occurred in the first three subjects, the next three-subject cohort was enrolled at the next highest available dose level. If a single DLT occurred, an additional three subjects was enrolled at the same dose level. Dose escalation continued until two subjects of the cohort experienced a DLT; this was defined as the toxic dose level. The dose-escalation phase was completed and MTD determined by reducing the dose to the next lowest dose compared to the toxic dose and expanding this cohort to at least 6 subjects.
Subjects with measurable disease were assessed by computed tomography at baseline and every 8 weeks according to Response Evaluation Criteria in Solid Tumours (RECIST), version 1.1 criteria.

[6] = system: plasma IFNγ, TNFα, IP-10 and MCP-1; test: Plasma cytokine/chemokine biomarkers (ELISA, array kits); type: in vivo, human
Description: as §1

[7] = 100 mg, dose number 1, NCA mean
[8] = 100 mg, dose number 4, NCA mean
[9] = 150 mg, dose number 1, NCA mean
[10] = 150 mg, dose number 4, NCA mean

Question: Which results are given for `CC(C)CCC[C@@H](C)[C@H]1CC[C@H]2[C@@H]3CC[C@H]4C[C@@H](O[C@@H]5O[C@H](COS(=O)(=O)O)[C@@H](O[C@H]6O[C@H](COS(=O)(=O)O)[C@@H](O[C@H]7O[C@H](COS(=O)(=O)O)[C@@H](O[C@H]8O[C@H](COS(=O)(=O)O)[C@@H](OS(=O)(=O)O)[C@H](OS(=O)(=O)O)[C@H]8OS(=O)(=O)O)[C@H](OS(=O)(=O)O)[C@H]7OS(=O)(=O)O)[C@H](OS(=O)(=O)O)[C@H]6OS(=O)(=O)O)[C@H](OS(=O)(=O)O)[C@H]5OS(=O)(=O)O)CC[C@]4(C)[C@H]3CC[C@]12C` [PG545]?
Answer: pDC and NK cell activation parameters ([1]; 150 mg cohort): unaffected or modestly responsive; Subjects with at least two-fold increased numbers of activated pDC or NK cells ([1]; 50 and 100 mg, 2 days after initial dose): six of the ten; Exposure (AUC0–168 and Cmax) relative to dose ([2]; 150 mg dose level): sub-proportional; Dose proportionality of exposure ([2]; 25-150 mg): proportional up to 100 mg; also recorded: general dose-proportionate exposure up to 100 mg; AUC ([2]; 25 mg, dose number 1, NCA mean): 432 µg·h/mL; Cmax ([2]; 25 mg, dose number 1, NCA mean): 9600 ng/mL; AUC(0-t) ([2]; 25 mg, dose number 1, NCA mean, read-out: AUC0-96): 339 µg·h/mL; AUC(0-t) ([2]; 25 mg, dose number 1, NCA mean, read-out: AUC0-last): 465 µg·h/mL; half-life ([2]; 25 mg, dose number 1, NCA mean, read-out: t1/2 (converted)): 149 h; AUC ([2]; 25 mg, dose number 4, NCA mean): 841 µg·h/mL; Cmax ([2]; 25 mg, dose number 4, NCA mean): 12400 ng/mL; AUC(0-t) ([2]; 25 mg, dose number 4, NCA mean, read-out: AUC0-96): 589 µg·h/mL; AUC(0-t) ([2]; 25 mg, dose number 4, NCA mean, read-out: AUC0-last): 611 µg·h/mL; half-life ([2]; 25 mg, dose number 4, NCA mean, read-out: t1/2 (converted)): 123 h; AUC ([2]; 50 mg, dose number 1, NCA mean): 695 µg·h/mL; Cmax ([2]; 50 mg, dose number 1, NCA mean): 15600 ng/mL; AUC(0-t) ([2]; 50 mg, dose number 1, NCA mean, read-out: AUC0-96): 539 µg·h/mL; AUC(0-t) ([2]; 50 mg, dose number 1, NCA mean, read-out: AUC0-last): 710 µg·h/mL; half-life ([2]; 50 mg, dose number 1, NCA mean, read-out: t1/2 (converted)): 183 h; AUC ([2]; 50 mg, dose number 4, NCA mean): 1640 µg·h/mL; Cmax ([2]; 50 mg, dose number 4, NCA mean): 21700 ng/mL; AUC(0-t) ([2]; 50 mg, dose number 4, NCA mean, read-out: AUC0-96): 1120 µg·h/mL; AUC(0-t) ([2]; 50 mg, dose number 4, NCA mean, read-out: AUC0-last): 1690 µg·h/mL; half-life ([2]; 50 mg, dose number 4, NCA mean, read-out: t1/2 (converted)): 228 h; AUC [2, 7]: 1210 µg·h/mL; Cmax [2, 7]: 29500 ng/mL; AUC(0-t) ([2]; 100 mg, dose number 1, NCA mean, read-out: AUC0-96): 974 µg·h/mL; AUC(0-t) ([2]; 100 mg, dose number 1, NCA mean, read-out: AUC0-last): 1210 µg·h/mL; half-life ([2]; 100 mg, dose number 1, NCA mean, read-out: t1/2 (converted)): 133 h; AUC [2, 8]: 2250 µg·h/mL; Cmax [2, 8]: 35600 ng/mL; AUC(0-t) ([2]; 100 mg, dose number 4, NCA mean, read-out: AUC0-96): 1610 µg·h/mL; AUC(0-t) ([2]; 100 mg, dose number 4, NCA mean, read-out: AUC0-last): 2380 µg·h/mL; half-life ([2]; 100 mg, dose number 4, NCA mean, read-out: t1/2 (converted)): 133 h; AUC [2, 9]: 1500 µg·h/mL; Cmax [2, 9]: 37100 ng/mL; AUC(0-t) ([2]; 150 mg, dose number 1, NCA mean, read-out: AUC0-96): 1190 µg·h/mL; AUC(0-t) ([2]; 150 mg, dose number 1, NCA mean, read-out: AUC0-last): 1440 µg·h/mL; half-life ([2]; 150 mg, dose number 1, NCA mean, read-out: t1/2 (converted)): 117 h; AUC [2, 10]: 3190 µg·h/mL; Cmax [2, 10]: 48600 ng/mL; AUC(0-t) ([2]; 150 mg, dose number 4, NCA mean, read-out: AUC0-96): 2230 µg·h/mL; AUC(0-t) ([2]; 150 mg, dose number 4, NCA mean, read-out: AUC0-last): 2780 µg·h/mL; half-life ([2]; 150 mg, dose number 4, NCA mean, read-out: t1/2 (converted)): 128 h; half-life ([2]; across all subjects, population PK model, read-out: Mean t1/2 (converted)): 141 h; Between subject variability of CL ([2]; population PK model): 75.6 % CV; Between subject variability of Vp ([2]; population PK model): 61.2 % CV; Apparent central volume (Vc) ([2]; population PK model, IV): 2.98 L; Apparent clearance (CL) ([2]; population PK model, IV): 0.0165 L/h; Apparent peripheral volume (Vp) ([2]; population PK model, IV): 11.9 L; Anti-heparanase activity [3]: strong anti-heparanase activity; Inhibition of tumour-associated macrophages (TAM) [4]: potently inhibit; Estimated median duration of SD ([5]; 95% confidence interval from 39 days to 62 days): 57 days; Disease control rate ([5]; evaluable subjects (six of sixteen), at 8 weeks): 38%; Best response ([5]; human, in vivo): stable disease up to 24 weeks; Objective responses ([5]; monotherapy): No objective responses were reported; Patients with stable disease (SD) at 8 weeks ([5]; of sixteen patients assessed, RECIST 1.1): six; Increases in TNFα, IL-6 and IL-8 responses ([6]; 150 mg vs 100 mg cohort averages): strikingly higher at 150 mg; Increase in plasma IFNγ, TNFα, IP-10 (CXCL10) and MCP-1 (CCL2) ([6]; after initial dose): up to 25 fold
